Data reported in ChEMBL document CHEMBL1773043, “Platensimycin and platencin congeners from Streptomyces platensis” (J Nat Prod, 2011).
The source made the active and inactive calls.

Experiments:
Escherichia coli = test: Antibacterial activity against Escherichia coli at 64 ug/ml after 20 hrs; format: functional, organism-based
Haemophilus influenzae = test: Antibacterial activity against Haemophilus influenzae at 64 ug/ml after 20 hrs; format: functional, organism-based
[1] = biological target: T1, 3-oxoacyl-[acyl-carrier-protein] synthase 2 (Staphylococcus aureus) (UniProt Q5TKS0); test: Inhibition of Staphylococcus aureus […] assessed as [2-14C]-malonyl CoA incorporation after 90 mins by cell free-based scintillation counting
T1 sequence (whole entry): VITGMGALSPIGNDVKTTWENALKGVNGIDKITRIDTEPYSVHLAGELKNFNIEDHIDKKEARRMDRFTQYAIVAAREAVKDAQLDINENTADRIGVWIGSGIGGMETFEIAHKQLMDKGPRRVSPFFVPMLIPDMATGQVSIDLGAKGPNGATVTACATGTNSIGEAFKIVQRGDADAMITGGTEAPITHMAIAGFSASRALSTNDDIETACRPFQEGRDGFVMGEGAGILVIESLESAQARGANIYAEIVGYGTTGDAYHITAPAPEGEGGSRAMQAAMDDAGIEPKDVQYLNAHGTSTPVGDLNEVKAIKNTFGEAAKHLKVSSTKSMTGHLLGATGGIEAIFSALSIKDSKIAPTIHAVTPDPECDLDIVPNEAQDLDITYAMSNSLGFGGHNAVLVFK

Staphylococcus aureus = test: Antibacterial activity against Staphylococcus aureus at 64 ug/ml after 20 hrs; format: functional, organism-based
Enterococcus faecalis = test: Antibacterial activity against Enterococcus faecalis at 64 ug/ml after 20 hrs; format: functional, organism-based
Streptococcus pneumoniae = test: Antibacterial activity against Streptococcus pneumoniae at 64 ug/ml after 20 hrs; format: functional, organism-based
Enterococcus faecium = test: Antibacterial activity against Enterococcus faecium at 64 ug/ml after 20 hrs; format: functional, organism-based

CC(=O)NCC[C@H](NC(=O)CC[C@]1(C)C(=O)C=C[C@]23CC4C[C@H](O[C@]4(C)C2)C31)C(=O)O (some centres not stated)
inactive: Activity (Escherichia coli) | Activity (Haemophilus influenzae) | inhibition [1] | Activity (Staphylococcus aureus) | Activity (Enterococcus faecalis) | Activity (Streptococcus pneumoniae) | Activity (Enterococcus faecium)

CC12CC34C=CC(=O)[C@@](C)(CCC(=O)Nc5c(O)ccc(C(=O)O)c5O)C3C(C[C@]1(O)C4)O2 (some centres not stated)
inactive: Activity (Escherichia coli) | Activity (Haemophilus influenzae) | inhibition [1] | Activity (Staphylococcus aureus) | Activity (Enterococcus faecalis) | Activity (Streptococcus pneumoniae) | Activity (Enterococcus faecium)

C[C@@]1(CCC(=O)Nc2c(O)ccc(C(=O)O)c2O)C(=O)C=CC23CCC(CC21)[C@@](O)(CO)C3 (some centres not stated)
inactive: Activity (Escherichia coli) | Activity (Haemophilus influenzae) | inhibition [1] | Activity (Staphylococcus aureus) | Activity (Enterococcus faecalis) | Activity (Streptococcus pneumoniae) | Activity (Enterococcus faecium)

C[C@@]1(CCC(=O)Nc2c(O)ccc(C(=O)O)c2O)C(=O)C=CC23CC4CC(OC4(CO)C2)C31 (some centres not stated)
inactive: Activity (Escherichia coli) | Activity (Haemophilus influenzae) | inhibition [1] | Activity (Staphylococcus aureus) | Activity (Enterococcus faecalis) | Activity (Streptococcus pneumoniae) | Activity (Enterococcus faecium)

COC(=O)CC[C@]1(C)C(=O)C=C[C@]23CC4C[C@H](O[C@]4(C)[C@@H]2O)C13 (some centres not stated)
inactive: Activity (Escherichia coli) | Activity (Haemophilus influenzae) | inhibition [1] | Activity (Staphylococcus aureus) | Activity (Enterococcus faecalis) | Activity (Streptococcus pneumoniae) | Activity (Enterococcus faecium)

COC(=O)CC[C@]1(C)C(=O)C=C[C@]23CC4C[C@H](O[C@]4(C)C2)C31 (some centres not stated)
inactive: Activity (Escherichia coli) | Activity (Haemophilus influenzae) | inhibition [1] | Activity (Staphylococcus aureus) | Activity (Enterococcus faecalis) | Activity (Streptococcus pneumoniae) | Activity (Enterococcus faecium)

C[C@@]1(O)CC23C=CC(=O)[C@@](C)(CCC(=O)Nc4c(O)ccc(C(=O)O)c4O)C2CC1CC3 (some centres not stated)
inactive: Activity (Escherichia coli) | Activity (Haemophilus influenzae) | inhibition [1] | Activity (Staphylococcus aureus) | Activity (Enterococcus faecalis) | Activity (Streptococcus pneumoniae) | Activity (Enterococcus faecium)

COCC(O)COc1ccc(C(C)(C)c2ccc(OCC(O)CO)cc2)cc1 (configuration not stated)
inactive: Activity (Escherichia coli) | Activity (Haemophilus influenzae) | inhibition [1] | Activity (Staphylococcus aureus) | Activity (Enterococcus faecalis) | Activity (Streptococcus pneumoniae) | Activity (Enterococcus faecium)

C[C@@]12C[C@@]34C=CC(=O)[C@@](C)(CCC(=O)Nc5c(O)cccc5O)C3[C@H](CC1C4)O2 (some centres not stated)
inactive: Activity (Escherichia coli) | Activity (Haemophilus influenzae) | inhibition [1] | Activity (Staphylococcus aureus) | Activity (Enterococcus faecalis) | Activity (Streptococcus pneumoniae) | Activity (Enterococcus faecium)

C[C@@]12C[C@@]34C=CC(=O)[C@@](C)(CCC(=O)Nc5c(O)ccc6c(=O)[nH]c(=O)oc56)C3[C@H](CC1C4)O2 (some centres not stated)
inactive: Activity (Escherichia coli) | Activity (Haemophilus influenzae) | inhibition [1] | Activity (Staphylococcus aureus) | Activity (Enterococcus faecalis) | Activity (Streptococcus pneumoniae) | Activity (Enterococcus faecium)

COC(=O)c1ccc(O)c(NC(=O)CC[C@]2(C)C(=O)C=CC34CC(CCC32)C(O)(CO)C4)c1O (some centres not stated)
inactive: Activity (Escherichia coli) | Activity (Haemophilus influenzae) | inhibition [1] | Activity (Staphylococcus aureus) | Activity (Enterococcus faecalis) | Activity (Streptococcus pneumoniae) | Activity (Enterococcus faecium)

COC(=O)[C@H](CCC(N)=O)NC(=O)/C(C)=C/CC[C@]1(C)C(=O)C=C[C@]23CC4C[C@H](O[C@]4(C)C2)C31 (some centres not stated)
inactive: Activity (Escherichia coli) | Activity (Haemophilus influenzae) | inhibition [1] | Activity (Staphylococcus aureus) | Activity (Enterococcus faecalis) | Activity (Streptococcus pneumoniae) | Activity (Enterococcus faecium)

C=C1CC23C=CC(=O)[C@@](C)(CCC(=O)OCC(O)CO)C2CC1CC3 (some centres not stated)
inactive: Activity (Escherichia coli) | Activity (Haemophilus influenzae) | inhibition [1] | Activity (Staphylococcus aureus) | Activity (Enterococcus faecalis) | Activity (Streptococcus pneumoniae) | Activity (Enterococcus faecium)

COC(=O)c1ccc(O)c(NC(=O)CC[C@]2(C)C(=O)C[C@@H](O)[C@]34CC5C[C@H](O[C@]5(C)C3)C42)c1O (some centres not stated)
inactive: Activity (Escherichia coli) | Activity (Haemophilus influenzae) | inhibition [1] | Activity (Staphylococcus aureus) | Activity (Enterococcus faecalis) | Activity (Streptococcus pneumoniae) | Activity (Enterococcus faecium)

C[C@@]12C[C@]34CC1C[C@H](O2)C3[C@](C)(CCC(=O)Nc1c(O)ccc(C(=O)O)c1O)C(=O)C[C@H]4O (some centres not stated)
inactive: Activity (Escherichia coli) | Activity (Haemophilus influenzae) | inhibition [1] | Activity (Staphylococcus aureus) | Activity (Enterococcus faecalis) | Activity (Streptococcus pneumoniae) | Activity (Enterococcus faecium)

COC(=O)c1ccc(O)c(NC(=O)CC[C@]2(C)C(=O)C=C[C@]34CC5C[C@H](O[C@]5(C)C3O)C42)c1O (some centres not stated)
inactive: Activity (Escherichia coli) | Activity (Haemophilus influenzae) | inhibition [1] | Activity (Staphylococcus aureus) | Activity (Enterococcus faecalis) | Activity (Streptococcus pneumoniae) | Activity (Enterococcus faecium)

COC(=O)c1ccc(O)c(NC(=O)CC[C@]2(C)C(=O)C=CC34CC5(C)OC(C[C@]5(O)C3)C42)c1O (some centres not stated)
inactive: Activity (Escherichia coli) | Activity (Haemophilus influenzae) | inhibition [1] | Activity (Staphylococcus aureus) | Activity (Enterococcus faecalis) | Activity (Streptococcus pneumoniae) | Activity (Enterococcus faecium)

C=C1C2CCC3(C=CC(=O)[C@@](C)(CCC(=O)Nc4c(O)ccc(C(=O)O)c4O)C3C2)[C@H]1O (some centres not stated)
inactive: Activity (Escherichia coli) | Activity (Haemophilus influenzae) | inhibition [1] | Activity (Staphylococcus aureus) | Activity (Enterococcus faecalis) | Activity (Streptococcus pneumoniae) | Activity (Enterococcus faecium)

C[C@@]1(CCC(=O)Nc2c(O)ccc(C(=O)O)c2O)C(=O)C=CC23CC(CCC21)C(O)(CO)C3 (some centres not stated)
inactive: Activity (Escherichia coli) | Activity (Haemophilus influenzae) | inhibition [1] | Activity (Staphylococcus aureus) | Activity (Enterococcus faecalis) | Activity (Streptococcus pneumoniae) | Activity (Enterococcus faecium)

C=C1C[C@@]23C=CC(=O)[C@@](C)(CCC(=O)OC)C2C[C@@H]1C[C@H]3O (some centres not stated)
inactive: Activity (Escherichia coli) | Activity (Haemophilus influenzae) | inhibition [1] | Activity (Staphylococcus aureus) | Activity (Enterococcus faecalis) | Activity (Streptococcus pneumoniae) | Activity (Enterococcus faecium)

C=C1CC23C=CC(=O)[C@@](C)(CCC(=O)Nc4c(O)ccc(C(=O)OC)c4O)C2CC1C[C@H]3O (some centres not stated)
inactive: Activity (Escherichia coli) | Activity (Haemophilus influenzae) | inhibition [1] | Activity (Staphylococcus aureus) | Activity (Enterococcus faecalis) | Activity (Streptococcus pneumoniae) | Activity (Enterococcus faecium)

COC(=O)c1ccc(O)c(NC(=O)CC[C@]2(C)C(=O)C=CC34CCC(CC32)[C@@](O)(CO)C4)c1O (some centres not stated)
inactive: Activity (Escherichia coli) | Activity (Haemophilus influenzae) | inhibition [1] | Activity (Staphylococcus aureus) | Activity (Enterococcus faecalis) | Activity (Streptococcus pneumoniae) | Activity (Enterococcus faecium)

C=C1CC23C=CC(=O)[C@@](C)(CCC(=O)OC)C2CC1[C@@H](O)C3 (some centres not stated)
inactive: Activity (Escherichia coli) | Activity (Haemophilus influenzae) | inhibition [1] | Activity (Staphylococcus aureus) | Activity (Enterococcus faecalis) | Activity (Streptococcus pneumoniae) | Activity (Enterococcus faecium)

C=C1CC23C=CC(=O)[C@@](C)(CCC(=O)Nc4c(O)ccc(C(=O)O)c4O)C2CC1C[C@H]3O (some centres not stated)
inactive: Activity (Escherichia coli) | Activity (Haemophilus influenzae) | inhibition [1] | Activity (Staphylococcus aureus) | Activity (Enterococcus faecalis) | Activity (Streptococcus pneumoniae) | Activity (Enterococcus faecium)

C/C(=C\CC[C@]1(C)C(=O)C=C[C@]23CC4C[C@H](O[C@]4(C)C2)C31)C(=O)N[C@@H](CCC(N)=O)C(=O)O (some centres not stated)
inactive: Activity (Escherichia coli) | Activity (Haemophilus influenzae) | inhibition [1] | Activity (Staphylococcus aureus) | Activity (Enterococcus faecalis) | Activity (Streptococcus pneumoniae) | Activity (Enterococcus faecium)

C=C1C[C@@]23C=CC(=O)[C@@](C)(CCC(=O)Nc4c(O)ccc(C(=O)O)c4O)[C@@H]2C[C@@H]1CC3
inactive: Activity (Escherichia coli) | Activity (Haemophilus influenzae) | Activity (Staphylococcus aureus) | Activity (Enterococcus faecalis) | Activity (Streptococcus pneumoniae) | Activity (Enterococcus faecium)

CC12C[C@@]34C=CC(=O)[C@@](C)(CCC(=O)Nc5c(O)ccc(C(=O)O)c5O)C3[C@H](CC1C4)O2 (some centres not stated)
inactive: Activity (Escherichia coli) | Activity (Haemophilus influenzae) | Activity (Staphylococcus aureus) | Activity (Enterococcus faecalis) | Activity (Streptococcus pneumoniae) | Activity (Enterococcus faecium)
